Patent US4584312A, “Substituted 2,3,4,9-tetrahydro-1H-carbazole-1-acetic acid, compositions and use” (American Home Products Corporation, priority 1985, dated 1986)

Key:
[1] = tested on: Freund's complete adjuvant hind paw edema; assay: Preventative Adjuvant Edema; assay type: in vivo, rat (Male Sprague Dawley); details: 25 mg/kg, p.o.; rats; hind paw edema volume day 0 to day 3; dosed day 0, 1 and 2
Protocol: This test is a primary screen for anti-inflammatory drugs.
Male Sprague Dawley rats (180-200 g) are used. The animals have free access water but food is withdrawn 18 hours before testing.
Freund's complete adjuvant is prepared by suspending 5 mg killed and dried Mycobacterium butyricum (Difco) in 1 ml liquid paraffin. The test compounds are dissolved in distilled water or suspended in distilled water with a few drops of Tween 80 according to their solubility. […]
The method is essentially that described by Wax et al., J. Pharmacol. Exp. Ther., 192, 166-171 (1975). Groups of rats are injected intradermally in the left hind paw with 0.1 ml of Freund's complete adjuvant. The test compound or vehicle is administered immediately before the adjuvant, 24 hours and 48 hours after the adjuvant (day 0, 1 and 2). The injected hind paw volume is measured before the injection of adjuvant and 24 hrs. after the last drug administration (day 3) by means of a plethysmometer (Buxco Electronics Inc.). The difference between the hind paw volume on day 0 and day 3 represents the edema volume. Phenylbutazone (50 mg/kg, p.o.) is included as a positive control.
The mean edema volume (expressed as ml±SEM) IS calculated for each group and the percentage protection conferred by the drug is calculated: [formula] where c is the mean edema volume for the untreated controls and t is the mean edema volume for the drug treated group.

[2] = tested on: phenylquinone-induced writhing; assay: Phenylquinone Writhing in Mice; assay type: in vivo, mouse (Male Swiss albino); details: 25 mg/kg, p.o., phenylquinone i.p. 60 minutes after dosing, writhes counted over 15 min
Protocol: A further test used to determine the utility of the compounds of the present invention is designated: DRUG EFFECTS ON PHENYLQUINONEINDUCED WRITHING IN MICE
The objective of this test is to determine the ability of test drugs to inhibit the nociceptive (pain) response of mice injected with a chemical irritant. This test is a primary screen for both peripheral and centrally acting analgesic drugs.
Male Swiss albino mice (15-25 g). The animals are fasted for 18 hours prior to use but have free access to water.
Drugs are dissolved or suspended according to their solubility in 0.5% methyl cellulose or 0.5% Tween 80. They are administered by gastric lavage in a volume of 5 ml/kg. For primary screening all drugs are administered at the arbitary dosage of 200 mg/kg, p.o. to a group of 10 mice.
A modification of the method of Siegmund et al., Proc. Soc. Exp. Biol. Med., 95, 729-731 (1957) is used. Groups of 5 mice are dosed with the test compound or vehicle control. Sixty minutes later the animals are injected i.p. with 0.3 ml/20 g body weight of a 0.02% solution of phenylquinone (PBQ; 2-phenyl-1,4-benzoquinone) and placed in individual observation boxes. The number of writhing or abdominal squirming movements made by each mouse during the following 15 min. period is counted. The experiment is repeated with another group of 5 mice and the mean number of writhes per mouse for a group of 10 mice is calculated.
Drug treated and vehicle-treated control groups are compared and the percentage protection conferred by the drug is calculated: [formula] where c=mean number of writhes in the control group where t=mean number of writhes in the test drug group

SMILES	% Inhibition (Preventative Adjuvant Edema) [1]	% Inhibition (Phenylquinone Writhing in Mice) [2]
CCc1cccc2c3c([nH]c12)C(CC)(CC(=O)O)CCC3C1CCCC1 (single isomer, unassigned) [Example 2 c Isomer B, 4-Cyclopentyl-1,8-diethyl-2,3,4,9-tetrahydro-1H-carbazole-1-acetic acid]	0%	17%
CCc1cccc2c3c([nH]c12)C(CC)(CC(=O)O)CCC3C1CC1 (single isomer, unassigned) [Example 1 f Isomer A, 4-Cyclopropyl-1,8-diethyl-2,3,4,9-tetrahydro-1H-carbazole-1-acetic Acid]	0%	31%
CCc1cccc2c3c([nH]c12)C(CC)(CC(=O)O)CCC3C1CC1 (single isomer, unassigned) [Example 1 f Isomer B, 4-Cyclopropyl-1,8-diethyl-2,3,4,9-tetrahydro-1H-carbazole-1-acetic Acid]	12%	49%
CCc1cccc2c3c([nH]c12)C(CC)(CC(=O)O)CCC3C1CCCC1 (single isomer, unassigned) [Example 2 d Isomer A, 4-cyclopentyl-1,8-diethyl-2,3,4,9-tetrahydro-1H-carbazole-1-acetic acid]	0%	35%
